The text below walks through data of patent US12247032B2, “Substituted pyrazolo[1,5-a]pyrimidines as inhibitors of JAK kinases” (Genentech, Inc., priority 2019, dated 2025).

Each structure is given as a SMILES string. Where two headings read alike, the source gives them in different places.

In experiment [1] the target is T1, recombinant human JAK1 kinase domain protein (Residues 854-1154) (Homo sapiens, UniProt P23458).
T1 construct: human JAK1 kinase domain protein (Residues 854-1154); purchased Proteros Biostructures GmbH (Martinsried, Germany); host or cells: insect cells
Kind of experiment: JAK1 biochemical assay (microfluidic mobility shift, peptide phosphorylation). Particulars: 25 μM ATP, 1 nM total JAK1; Ki calculated from Ki app (tight-binding, competitive); read-out: Biochem JAK1 Ki. In short, it runs like this:
(§1)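 Insect-cell-expressed human JAK1 (1 nM, residues 854-1154) or JAK2 (0.2 nM, residues 812-1132) phosphorylating 1.5 μM 5-FAM peptide Y-1B with 25 μM ATP, pH 7.2 HEPES, 30 min at 22-23 °C; twelve concentrations up to 1000 nM in duplicate. Mobility-shift % conversion fitted to tight-binding quadratic for Ki^app.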

Experiment [2] has as its target T2, Recombinant human JAK2 kinase domain protein (Residues 812-1132) (Homo sapiens, UniProt O60674).
T2 construct: human JAK2 kinase domain protein (Residues 812-1132); made in house; host or cells: insect cells
Kind of experiment: JAK2 biochemical assay (microfluidic mobility shift, peptide phosphorylation). Particulars: 25 μM ATP, 0.2 nM total JAK2; Ki calculated from Ki app (tight-binding, competitive); read-out: Biochem JAK2 Ki. A digest of the protocol:
as §1

The test system of experiment [3] is JAK1 (IL-13-stimulated STAT6 phosphorylation in BEAS-2B cells). The experiment in a line: P-STAT6 BEAS-2B+IL-13 cell assay. The class given is cell-based, human. Particulars: 1 hour compound, IL-13 15 minutes, IC50 by four-parameter fit, read-out: Cellular JAK1 PSTAT6 BEAS2B + IL13. A digest of the protocol:
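BEAS-2B human bronchial epithelial cells preincubated 1 h at 37 °C with compound, then stimulated with human recombinant IL-13 for 15 min. Phospho-STAT6 (Tyr641) in lysates measured by MSD electrochemiluminescence immunoassay; IC50 from a four-parameter logistic fit of percent of control.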

T1 sequence (P23458 854-1154): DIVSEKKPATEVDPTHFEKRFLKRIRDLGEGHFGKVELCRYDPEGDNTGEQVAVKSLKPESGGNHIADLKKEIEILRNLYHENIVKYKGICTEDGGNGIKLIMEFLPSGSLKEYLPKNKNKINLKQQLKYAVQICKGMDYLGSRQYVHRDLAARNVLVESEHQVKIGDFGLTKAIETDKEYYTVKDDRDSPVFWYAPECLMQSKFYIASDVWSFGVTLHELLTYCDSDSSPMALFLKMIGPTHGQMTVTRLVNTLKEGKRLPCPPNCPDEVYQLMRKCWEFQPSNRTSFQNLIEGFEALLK
T2 sequence (O60674 812-1132): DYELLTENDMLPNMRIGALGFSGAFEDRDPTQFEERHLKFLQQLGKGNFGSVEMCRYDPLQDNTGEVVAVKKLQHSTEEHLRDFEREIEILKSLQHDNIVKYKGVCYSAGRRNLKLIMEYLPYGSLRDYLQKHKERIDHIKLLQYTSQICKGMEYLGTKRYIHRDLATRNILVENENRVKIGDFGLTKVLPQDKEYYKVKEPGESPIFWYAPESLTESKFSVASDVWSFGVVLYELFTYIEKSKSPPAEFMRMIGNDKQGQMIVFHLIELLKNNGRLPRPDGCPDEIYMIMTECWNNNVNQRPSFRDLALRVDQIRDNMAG

Regarding `O=C(Nc1cn(Cc2nnn(C3CCNC3)n2)nc1-c1cc(OC(F)F)ccc1OC(F)F)c1cnn2cccnc12` (single isomer, unassigned) [Example 27, N-[3-[2,5-bis(difluoromethoxy)phenyl]-1-[(2-pyrrolidin-3-yltetrazol-5-yl)methyl]pyrazol-4-yl]pyrazolo[1,5-a]pyrimidine-3-carboxamide], the Ki was 0.35 nM in experiment [1] and 0.38 nM in experiment [2]. Also, the IC50 in experiment [3] (Homo sapiens, BEAS-2B, 1 h) was 12 nM.
Regarding `O=C(Nc1cn(Cc2nnn(C3CCNC3)n2)nc1-c1cc(OC(F)F)ccc1OC(F)F)c1cnn2cccnc12` (single isomer, unassigned) [Example 28, N-[3-[2,5-bis(difluoromethoxy)phenyl]-1-[(2-pyrrolidin-3-yltetrazol-5-yl)methyl]pyrazol-4-yl]pyrazolo[1,5-a]pyrimidine-3-carboxamide], the Ki in experiment [1] is 0.3 nM; in experiment [2] it was 0.36 nM. The IC50 in experiment [3] is 12 nM.
Turning to `CN1CCC(N2CC(n3nnc(Cn4cc(NC(=O)c5cnn6cccnc56)c(-c5cc(OC(F)F)ccc5OC(F)F)n4)n3)C2)C1` (single isomer, unassigned) [Example 72, N-[3-[2,5-bis(difluoromethoxy)phenyl]-1-[[2-[1-(1-methylpyrrolidin-3-yl)azetidin-3-yl]tetrazol-5-yl]methyl]pyrazol-4-yl]pyrazolo[1,5-a]pyrimidine-3-carboxamide], the Ki in experiment [1] was 0.61 nM; in experiment [2], 0.48 nM. Also, the IC50 in experiment [3] (Homo sapiens, BEAS-2B, 1 h) is 36 nM.
The like results for `CN1CC(n2nnc(Cn3cc(NC(=O)c4cnn5cccnc45)c(-c4cc(Cl)ccc4OC(F)F)n3)n2)C1` [Example 7, N-[3-[5-chloro-2-(difluoromethoxy)phenyl]-1-[[2-(1-methylazetidin-3-yl)tetrazol-5-yl]methyl]pyrazol-4-yl]pyrazolo[1,5-a]pyrimidine-3-carboxamide] were, in that order, 0.42 nM, 0.17 nM and 9.8 nM.
The like results for `O=C(Nc1cn(Cc2nnn(C3CNC3)n2)nc1-c1cc(Cl)ccc1OC(F)F)c1cnn2cccnc12` [Example 8, N-[1-[[2-(azetidin-3-yl)tetrazol-5-yl]methyl]-3-[5-chloro-2-(difluoromethoxy)phenyl]pyrazol-4-yl]pyrazolo[1,5-a]pyrimidine-3-carboxamide] were, in that order, 0.5 nM, 0.28 nM and 9.3 nM.
The like results for `CN1CC(n2nnc(Cn3cc(NC(=O)c4cnn5cccnc45)c(-c4cc(OC(F)F)ccc4OC(F)F)n3)n2)C1` [Example 10, N-[3-[2,5-bis(difluoromethoxy)phenyl]-1-[[2-(1-methylazetidin-3-yl)tetrazol-5-yl]methyl]pyrazol-4-yl]pyrazolo[1,5-a]pyrimidine-3-carboxamide] were, in that order, 0.33 nM, 0.24 nM and 17 nM.
On to `O=C(Nc1cn(Cc2nnn(C3CNC3)n2)nc1-c1cc(OC(F)F)ccc1OC(F)F)c1cnn2cccnc12` [Example 11, N-[1-[[2-(azetidin-3-yl)tetrazol-5-yl]methyl]-3-[2,5-bis(difluoromethoxy)phenyl]pyrazol-4-yl]pyrazolo[1,5-a]pyrimidine-3-carboxamide], for which the Ki is 0.39 nM in experiment [1] and 0.27 nM in experiment [2]. In experiment [3] (Homo sapiens, BEAS-2B, 1 h), the IC50 came out at 23 nM.
The like results for `O=C(Nc1cn(Cc2nnnn2C2CNC2)nc1-c1cc(OC(F)F)ccc1OC(F)F)c1cnn2cccnc12` [Example 12, N-[1-[[1-(azetidin-3-yl)tetrazol-5-yl]methyl]-3-[2,5-bis(difluoromethoxy)phenyl]pyrazol-4-yl]pyrazolo[1,5-a]pyrimidine-3-carboxamide] were, in that order, 0.21 nM, 0.18 nM and 31 nM.
Regarding `NCCn1nnc(Cn2cc(NC(=O)c3cnn4cccnc34)c(-c3cc(OC(F)F)ccc3OC(F)F)n2)n1` [Example 13, N-[1-[[2-(2-aminoethyl)tetrazol-5-yl]methyl]-3-[2,5-bis(difluoromethoxy)phenyl]pyrazol-4-yl]pyrazolo[1,5-a]pyrimidine-3-carboxamide], the Ki in experiment [1] is 0.25 nM; in experiment [2], 0.16 nM. Further, the IC50 in experiment [3] (Homo sapiens, BEAS-2B, 1 h) was found to be 11 nM.
The like results for `NCCn1nnnc1Cn1cc(NC(=O)c2cnn3cccnc23)c(-c2cc(OC(F)F)ccc2OC(F)F)n1` [Example 14, N-[1-[[1-(2-aminoethyl)tetrazol-5-yl]methyl]-3-[2,5-bis(difluoromethoxy)phenyl]pyrazol-4-yl]pyrazolo[1,5-a]pyrimidine-3-carboxamide] were, in that order, 0.26 nM, 0.12 nM and 39 nM.
For `CN1CC(n2nnnc2Cn2cc(NC(=O)c3cnn4cccnc34)c(-c3cc(Cl)ccc3OC(F)F)n2)C1` [Example 15, N-[3-[5-chloro-2-(difluoromethoxy)phenyl]-1-[[1-(1-methylazetidin-3-yl)tetrazol-5-yl]methyl]pyrazol-4-yl]pyrazolo[1,5-a]pyrimidine-3-carboxamide] the same measures were 0.22 nM, 0.092 nM and 8.6 nM.
For `CN(C)CCn1nnc(Cn2cc(NC(=O)c3cnn4cccnc34)c(-c3cc(OC(F)F)ccc3OC(F)F)n2)n1` [Example 16, N-[3-[2,5-bis(difluoromethoxy)phenyl]-1-[[2-[2-(dimethylamino)ethyl]tetrazol-5-yl]methyl]pyrazol-4-yl]pyrazolo[1,5-a]pyrimidine-3-carboxamide] the same measures were 0.45 nM, 0.27 nM and 18 nM.
For the molecule `CN(C)CCn1nnnc1Cn1cc(NC(=O)c2cnn3cccnc23)c(-c2cc(OC(F)F)ccc2OC(F)F)n1` [Example 17, N-[3-[2,5-bis(difluoromethoxy)phenyl]-1-[[1-[2-(dimethylamino)ethyl]tetrazol-5-yl]methyl]pyrazol-4-yl]pyrazolo[1,5-a]pyrimidine-3-carboxamide], the Ki is 0.43 nM in experiment [1] and 0.23 nM in experiment [2]. The IC50 in experiment [3] (Homo sapiens, BEAS-2B, 1 h) is 19 nM.
Regarding `O=C(Nc1cn(Cc2nnn(C3CCNCC3)n2)nc1-c1cc(OC(F)F)ccc1OC(F)F)c1cnn2cccnc12` [Example 18, N-[3-[2,5-bis(difluoromethoxy)phenyl]-1-[[2-(4-piperidyl)tetrazol-5-yl]methyl]pyrazol-4-yl]pyrazolo[1,5-a]pyrimidine-3-carboxamide], the Ki in experiment [1] is 0.51 nM; in experiment [2], 0.43 nM. Besides, in experiment [3] (Homo sapiens, BEAS-2B, 1 h), the IC50 came to 35 nM.
For `CNCCn1nnnc1Cn1cc(NC(=O)c2cnn3cccnc23)c(-c2cc(OC(F)F)ccc2OC(F)F)n1` [Example 19, N-[3-[2,5-bis(difluoromethoxy)phenyl]-1-[[1-[2-(methylamino)ethyl]tetrazol-5-yl]methyl]pyrazol-4-yl]pyrazolo[1,5-a]pyrimidine-3-carboxamide] the same measures were 0.22 nM, 0.15 nM and 21 nM.
For `CNCCn1nnc(Cn2cc(NC(=O)c3cnn4cccnc34)c(-c3cc(OC(F)F)ccc3OC(F)F)n2)n1` [Example 20, N-[3-[2,5-bis(difluoromethoxy)phenyl]-1-[[2-[2-(methylamino)ethyl]tetrazol-5-yl]methyl]pyrazol-4-yl]pyrazolo[1,5-a]pyrimidine-3-carboxamide] the same measures were 0.57 nM, 0.46 nM and 30 nM.
The like results for `CN(C)CCN1CC(n2nnc(Cn3cc(NC(=O)c4cnn5cccnc45)c(-c4cc(OC(F)F)ccc4OC(F)F)n3)n2)C1` [Example 21, N-[3-[2,5-bis(difluoromethoxy)phenyl]-1-[[2-[1-[2-(dimethylamino)ethyl]azetidin-3-yl]tetrazol-5-yl]methyl]pyrazol-4-yl]pyrazolo[1,5-a]pyrimidine-3-carboxamide] were, in that order, 0.4 nM, 0.39 nM and 15 nM.
Turning to `CN1CCC(n2nnc(Cn3cc(NC(=O)c4cnn5cccnc45)c(-c4cc(OC(F)F)ccc4OC(F)F)n3)n2)CC1` [Example 22], the Ki in experiment [1] is 0.44 nM; in experiment [2], 0.3 nM. The IC50 in experiment [3] (Homo sapiens, BEAS-2B, 1 h) was 19 nM.
With `CN1CC(n2nnc(Cn3cc(NC(=O)c4cnn5cccnc45)c(-c4cc(C5CC5)ccc4OC(F)F)n3)n2)C1` [Example 23, N-[3-[5-cyclopropyl-2-(difluoromethoxy)phenyl]-1-[[2-(1-methylazetidin-3-yl)tetrazol-5-yl]methyl]pyrazol-4-yl]pyrazolo[1,5-a]pyrimidine-3-carboxamide], the Ki was 0.42 nM in experiment [1] and 0.24 nM in experiment [2]. Further, the IC50 in experiment [3] (Homo sapiens, BEAS-2B, 1 h) was found to be 17 nM.
With `CN1CCC(n2nnnc2Cn2cc(NC(=O)c3cnn4cccnc34)c(-c3cc(OC(F)F)ccc3OC(F)F)n2)C1` (stereo not drawn) [Example 26, N-[3-[2,5-bis(difluoromethoxy)phenyl]-1-[[1-(1-methylpyrrolidin-3-yl)tetrazol-5-yl]methyl]pyrazol-4-yl]pyrazolo[1,5-a]pyrimidine-3-carboxamide], the Ki in experiment [1] was 0.51 nM; in experiment [2], 0.39 nM. The IC50 in experiment [3] (Homo sapiens, BEAS-2B, 1 h) stood at 16 nM.
